{"source": "patent US20230313206A1", "about": "“System for inducible expression of an adapter in immune cells” (Miltenyi Biotec B.V. & Co. KG, priority 2020, published 2023)", "assay_type_in_all_cases": "cell-based", "key": {"[1]": {"test_system": "CD19+ Raji cells", "test": "Cytolytic activity of anti-His adapter CAR T cells in co-culture with Raji cells and inducible anti-CD19 Fab T cells", "conditions": "adapter CAR T cells (E:T 2:1) and 1E4 inducible T cells, 6 days", "experimental": "Anti-His Adapter CAR T cell-mediated cytotoxicity against tumor cells was assessed by the quantification of living target cells using the MACSQuant® Analyzer 10 (Miltenyi Biotec). Therefore, 1E4 GFP^+ Raji cells were seeded in 50 μL TexMACS medium (Miltenyi Biotec) in a 96-well round-bottom plate. Anti-His Adapter CAR T cells were subsequently added at an E:T ratio of 2:1 in a volume of 50 μL TexMACS medium (Miltenyi Biotec). T cell numbers were adjusted to LNGFR expression implicating equal transduced and total T cell numbers in each well. The number of untransduced T cells was adjusted to total cell numbers. 1E4 anti-CD19 Fab inducible T cells that secrete the adapter molecule, a His-tagged anti-CD19 Fab, upon induction, were added to the respective wells. His-tagged anti-CD19 Fab secretion was induced by the addition of 100 nM 4-OHT (Sigma-Aldrich) in 50 μL TexMACS (Miltenyi Biotec) at the start of the assay. The plate was centrifuged at 300 g for 1 min and incubated at 37° C., 5% C02. The specific lysis of target cells was determined 6 days after co-culture set-up. […] Next, living target cells were quantified via flow cytometry. […] Living Raji tumor cells were defined as PI^−, GFP^+ cells and specific lysis was calculated according to the following formula: % specific lysis=(1−(Raji cell count [sample]/Raji cell count [target cell]))·100%."}, "[2]": {"test_system": "PD-1 expression on T cells", "test": "PD-1 expression (activation) of anti-His adapter CAR T cells in co-culture with Raji cells and inducible anti-CD19 Fab T cells", "conditions": "adapter CAR T cells (E:T 2:1) and 1E4 inducible T cells, day 2", "experimental": "To set up the co-culture, 1E4 GFP^+ Raji cells were seeded in 50 μL TexMACS medium (Miltenyi Biotec) in a 96-well round-bottom plate. Anti-His Adapter CAR T cells were subsequently added at an E:T ratio of 2:1 in a volume of 50 μL TexMACS medium (Miltenyi Biotec). T cell numbers were adjusted to LNGFR expression implicating equal transduced and total T cell numbers in each well. The number of untransduced T cells was adjusted to total cell numbers. 1E4 anti-CD19 Fab inducible T cells that secrete the adapter molecule, a His-tagged anti-CD19 Fab, upon induction, were added to the respective wells. His-tagged anti-CD19 Fab secretion was induced by the addition of 100 nM 4-OHT (Sigma-Aldrich) in 50 μL TexMACS (Miltenyi Biotec) at the start of the assay. The plate was centrifuged at 300 g for 1 min and incubated at 37° C., 5% C02 for 2 days. Activation of T cells was analyzed by staining the cells of the co-culture with anti-PD-1-PEVio770, CD3-VioBlue, CD8-VioGreen and LNGFR-APC conjugates (Miltenyi Biotec). Therefore, the co-culture plate was centrifuged at 300 g for 5 min and cells were stained with 50 μL staining mixture composed of the PD-1 PE07, conjugate (Miltenyi Biotec) diluted in PEB for 10 min at 4° C. Cells were washed twice with 200 μL PEB (300 g, 5 min). Cells were resuspended in 100 μL PEB for subsequent flow cytometric analysis. […]"}, "[3]": {"test_system": "drug-inducible T cells", "test": "Induction of anti-CD19 Fab-His6 secretion by drug-inducible primary T cells; supernatant stained on CD19+ Raji cells", "conditions": "4-OHT 0-500 nM", "experimental": "Lentiviral particles encoding for the drug-inducible cassette were manufactured as described in example 1.2. Drug-inducible T cells were generated as described in example 1.3. 1E4 LNGFR positive drug-inducible T cells were seeded in 100 μL TexMACS medium (Miltenyi Biotec) supplemented with IL-7 (Miltenyi Biotec) and IL-15 (Miltenyi Biotec) in a 96 round bottom well plate. Secretion of the His6-tagged anti-CD19 Fab was induced by the addition of different concentrations of 4-OHT (0-500 nM, Sigma-Aldrich) in 100 μL TexMACS medium (Miltenyi Biotec) supplemented with IL-7 (Miltenyi Biotec) and IL-15 (Miltenyi Biotec) to each well. Untransduced T cells constitute the negative control. Cells were incubated at 37° C. and 5% C02. His6-tagged anti-CD19 Fab containing supernatant was harvested 48 h after the induction. CD19^+ Raji cells were subsequently stained using T cell supernatant and anti-His-APC as secondary antibody. Therefore, 1E5 CD19^+ Raji cells were seeded in a 96 round bottom well plate. Cells were pelleted at 300 g for 5 min and stained with 50 μL of the collected T cell supernatant for 10 min at 4° C. […] The determined mean fluorescent intensity in the APC channel was correlated to the Fab concentration by extrapolation from a standard curve. […]"}}}
{"substance": "4-hydroxytamoxifen [4-OHT]", "values": [{"measurement": "4-OHT concentration at which specific lysis of CD19+ Raji cells was detected", "setting": "[1]", "result": "at least 1 nM"}, {"measurement": "4-OHT concentration giving maximal specific lysis", "setting": "[1]", "result": "at least 10 nM"}, {"measurement": "4-OHT concentration at which PD-1 expression on T cells was detected", "setting": "[2]", "result": "at least 10 nM"}, {"measurement": "4-OHT concentration giving maximal frequency of PD-1 positive cells", "setting": "[2]", "result": "at least 50 nM"}, {"measurement": "Amount of His6-tagged anti-CD19-Fab in T cell supernatant with increasing 4-OHT concentration", "setting": "[3]; 48 h, Fab concentration extrapolated from standard curve", "result": "increasing amounts of His6-tagged anti-CD19-Fab is detected"}, {"measurement": "Induction of His6-tagged anti-CD19-Fab secretion by inducible T cells", "setting": "[3]; supernatant harvested 48 h after induction", "result": "strictly dependent on the presence of the inducer drug 4-OHT"}]}
